Data from PubChem BioAssay (NCI).
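Five compound concentrations were applied to cells in 96-well plates for 48 hours; endpoints were derived by simple linear interpolation of the resulting dose-response curve. At the GI50, growth is halved. TGI denotes the concentration required for complete inhibition of growth.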

Experiments:
Test in all cases: DTP human tumour cell line panel, 48 h
[1] = tested on: KM12 colon
[2] = tested on: UO-31 renal
[3] = tested on: EKVX NSCLC
[4] = tested on: ACHN renal
[5] = tested on: IGROV1 ovarian
[6] = tested on: DU-145 prostate
[7] = tested on: HOP-62 NSCLC
[8] = tested on: UACC-62 melanoma
[9] = tested on: MDA-MB-231 breast
[10] = tested on: RXF 393 renal

| Compound | TGI [1] | TGI [2] | TGI [3] | TGI [4] | TGI [5] | TGI [6] | TGI [7] | TGI [8] | TGI [9] | TGI [10] | GI50 [1] | GI50 [2] | GI50 [3] | GI50 [4] | GI50 [5] | GI50 [6] | GI50 [7] | GI50 [8] | GI50 [9] | GI50 [10] |
| --- | --- | --- | --- | --- | --- | --- | --- | --- | --- | --- | --- | --- | --- | --- | --- | --- | --- | --- | --- | --- |
| COc1cc(O)c2c(O)c3c(c4c2c1[C@]1(C4)C(C)=CCCC1(C)C)[C@H](O)[C@@]1(O)CC(=O)C(C(N)=O)=C(O)[C@@]1(O)C3=O | 1.24 µM | 1.27 µM | 1.06 µM | 1.19 µM | 1.94 µM | 2.43 µM | 1.51 µM | 1.95 µM | 1.17 µM | 2.13 µM |  |  |  |  |  |  |  |  |  |  |
| Cc1cc2c(cc1Cl)SC1=CC(=O)N(c3ccccc3)C1=NS2(=O)=O | 67.3 µM | > 100 µM | > 100 µM | > 100 µM | > 100 µM | > 100 µM | > 100 µM | > 100 µM | > 100 µM | > 100 µM | 26.1 µM | 54 µM | > 100 µM | 26.6 µM | 53.9 µM | 59.4 µM | 46 µM | 33 µM | 43.7 µM | > 100 µM |
| CCCN(CCC)C(=O)C1=Cc2ccc(-c3ccc(C(=O)N4CCCC4)cc3)cc2N=C(N)C1 | 21.4 µM | 32.8 µM | 57.1 µM | 50.9 µM | 54.8 µM | 91.1 µM | 65.4 µM | 26.4 µM | 77 µM | 19.3 µM | 5.01 µM | 9.15 µM | 11.8 µM | 8.13 µM | 14.4 µM | 20.6 µM | 12.6 µM | 9.17 µM | 13.2 µM | 5.13 µM |
| O=C1NN(c2ccc(C(=O)O)cc2)C(=O)/C1=C\c1ccc([N+](=O)[O-])o1 | > 100 µM | > 100 µM | > 100 µM | 55.3 µM | 52.6 µM | > 100 µM | > 100 µM | > 100 µM | > 100 µM | > 100 µM | > 100 µM | 59.1 µM | > 100 µM | 24.4 µM | 20.5 µM | 85.6 µM | > 100 µM | 62 µM | 58.5 µM | 40.7 µM |
| COc1ccc(N(CC(=O)NCCC[Te]c2ccccc2)C(=O)c2ccccc2)cc1 | 11.9 µM | 10.9 µM | 5.27 µM | 9.6 µM | 8.27 µM | 13.9 µM | 5.32 µM | 7.5 µM | 4.76 µM | 30.3 µM | 3.13 µM | 2.77 µM | 0.407 µM | 3.17 µM | 2.88 µM | 3.9 µM | 2.41 µM | 2.53 µM | 2.08 µM | 12 µM |
| O=[N+]([O-])c1ccc(Br)c([N+](=O)[O-])c1 | 3.23 µM | 0.779 µM | 4 µM | 3.48 µM | 3.94 µM | 3.12 µM | 3.24 µM | 6.87 µM | 7.12 µM | 3.36 µM | 1.8 µM | 0.266 µM | 1.84 µM | 1.8 µM | 1.92 µM | 1.72 µM | 1.78 µM | 2.56 µM | 2.68 µM | 1.83 µM |
| COc1cc2c3c(n(CCCCOC(=O)C(F)(F)F)c(=O)c2cc1OC)-c1cc2c(cc1C3=O)OCO2 | > 100 µM | > 100 µM | > 100 µM | > 100 µM | > 100 µM | > 100 µM |  | > 100 µM | > 82.2 µM | > 100 µM | > 100 µM | > 100 µM | > 100 µM | > 48.3 µM | > 26.3 µM | > 80 µM | 10.4 µM | > 100 µM | 31.9 µM | > 100 µM |
| COc1ccc(-c2[nH]c3ccccc3c2C=C(C#N)C#N)cc1 |  | > 100 µM | > 100 µM | > 100 µM | > 100 µM | > 21.7 µM | 21.8 µM |  | > 22.6 µM | > 100 µM | 0.373 µM |  | 0.648 µM | 2.26 µM |  | 0.484 µM | 0.962 µM | 0.347 µM | 0.543 µM | 0.511 µM |
| COc1ccc(CCN2C(=O)C=CC2=O)cc1OC | 40.8 µM | 3.05 µM | 41.1 µM | 3.17 µM | 36.7 µM | 31 µM | 53.8 µM | 31 µM | 28.5 µM | 19.9 µM |  |  |  |  |  |  |  |  |  |  |
| Cn1cc(-c2nc(-c3c[nH]c4ncccc34)cs2)c2cc(F)ccc21 | 5.16 µM | 8.12 µM | 10.5 µM | 14.7 µM | 13.1 µM | 15.2 µM | 16.5 µM | 17.2 µM | 8.36 µM | 9.14 µM | 0.83 µM | 2.06 µM | 0.6 µM | 3.21 µM | 2.51 µM | 3.97 µM | 4.11 µM | 3.65 µM | 2.32 µM | 2.49 µM |
| Nc1nc(N)c(N=O)c(Nc2ccc(O)cc2)n1 | > 100 µM | > 86.7 µM | > 100 µM | > 86.1 µM | 44.8 µM | > 100 µM | > 57.2 µM | > 100 µM | > 100 µM | > 100 µM |  |  |  |  |  |  |  |  |  |  |
| CCOc1cccc(/C=N/NC(=O)c2ccc(Nc3ccnc(C(F)(F)F)c3)cc2)c1O | > 58.4 µM | > 25.7 µM | > 81.8 µM | > 79.1 µM | > 23.9 µM | > 100 µM | > 78.5 µM | > 61 µM | > 100 µM | > 49.2 µM | 1.62 µM | 0.781 µM | 1.21 µM | 0.728 µM | 2.32 µM | 2.46 µM | 2.23 µM | 0.774 µM | 1.7 µM | 2.97 µM |
| Cn1nccc1Nc1nccc(-c2cc3c(s2)C(C)(C)N(CCN2CCOCC2)C3=O)n1 | > 100 µM | > 100 µM | > 100 µM | > 100 µM | > 100 µM | > 100 µM | > 100 µM | > 100 µM | > 100 µM | > 85.3 µM | 7.86 µM | 3.76 µM | 3.1 µM | 9.53 µM | 2.15 µM | 25.8 µM | 7.53 µM | 0.274 µM | 2.8 µM | 4.73 µM |
